Experiments:
Assay in all cases: relative viability (nuclei count vs DMSO), 5 days (fraction); higher = more cells survive
Bemcentinib + Trametinib = compound: Nc1nc(Nc2ccc3c(c2)CC[C@@H](N2CCCC2)CC3)nn1-c1cc2c(nn1)-c1ccccc1CCC2 [Bemcentinib] + CC(=O)Nc1cccc(-n2c(=O)n(C3CC3)c(=O)c3c(Nc4ccc(I)cc4F)n(C)c(=O)c(C)c32)c1 [Trametinib] (partner 0.02 µM)
Outline: (§1)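 Relative viability is defined as nuclei in treated wells over nuclei in vehicle wells. Duplicate plates were run and medians reported. Lung cancer cell lines in 1536-well plates were dosed by pin tool one day after seeding, with one drug or with a fixed anchor-drug dose plus five library-drug doses (not always all listed) in √10 steps, and nuclei were counted after 5 days.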

Axitinib + Navitoclax = compound: CNC(=O)c1ccccc1Sc1ccc2c(/C=C/c3ccccn3)n[nH]c2c1 [Axitinib] + CC1(C)CCC(c2ccc(Cl)cc2)=C(CN2CCN(c3ccc(C(=O)NS(=O)(=O)c4ccc(N[C@H](CCN5CCOCC5)CSc5ccccc5)c(S(=O)(=O)C(F)(F)F)c4)cc3)CC2)C1 [Navitoclax] (partner 0.5 µM)
Outline: as §1

Axitinib + Alpelisib = compound: CNC(=O)c1ccccc1Sc1ccc2c(/C=C/c3ccccn3)n[nH]c2c1 [Axitinib] + Cc1nc(NC(=O)N2CCC[C@H]2C(N)=O)sc1-c1ccnc(C(C)(C)C(F)(F)F)c1 [Alpelisib] (partner 2 µM)
Outline: as §1

[1] = compound: CC1=CC=C(C=C1)C(=O)CN2C3=C(CCCC3)SC2=N [Pifithrin_alpha] + COc1cc2c(Oc3ccc(NC(=O)C4(C(=O)Nc5ccc(F)cc5)CC4)cc3F)ccnc2cc1OCCCN1CCOCC1 [Foretinib] (partner 0.25 µM)
Outline: as §1

| Cell Line | relative viability (Bemcentinib + Trametinib; first compound 0.04 µM) | relative viability (Bemcentinib + Trametinib; first compound 0.1265 µM) | relative viability (Bemcentinib + Trametinib; first compound 0.4 µM) | relative viability (Bemcentinib + Trametinib; first compound 1.265 µM) | relative viability (Bemcentinib + Trametinib; first compound 4 µM) | relative viability (Axitinib + Navitoclax; first compound 0.005 µM) | relative viability (Axitinib + Navitoclax; first compound 0.01581 µM) | relative viability (Axitinib + Navitoclax; first compound 0.05 µM) | relative viability (Axitinib + Navitoclax; first compound 0.1581 µM) | relative viability (Axitinib + Navitoclax; first compound 0.5 µM) | relative viability (Axitinib + Alpelisib; first compound 0.005 µM) | relative viability (Axitinib + Alpelisib; first compound 0.01581 µM) | relative viability (Axitinib + Alpelisib; first compound 0.05 µM) | relative viability (Axitinib + Alpelisib; first compound 0.1581 µM) | relative viability (Axitinib + Alpelisib; first compound 0.5 µM) | relative viability ([1]; first compound 1 µM) | relative viability ([1]; first compound 3.162 µM) | relative viability ([1]; first compound 10 µM) | relative viability ([1]; first compound 100 µM) | relative viability ([1]; first compound 31.62 µM) |
| --- | --- | --- | --- | --- | --- | --- | --- | --- | --- | --- | --- | --- | --- | --- | --- | --- | --- | --- | --- | --- |
| NCI-H2087 | 0.192 | 0.193 | 0.201 | 0.211 | 0.206 | 1.24 | 1.1 | 1.04 | 0.899 | 1.07 | 1.18 | 1.04 | 0.993 | 1.07 | 1.22 | 1.1 | 1.21 | 1.07 | 1.03 | – |
| NCI-H2126 | 0.639 | 0.583 | 0.588 | 0.581 | 0.585 | 0.81 | 0.877 | 0.824 | 0.841 | 0.765 | 0.724 | 0.795 | 0.745 | 0.707 | 0.697 | – | 0.988 | 0.946 | 1.1 | 0.96 |
| NCI-H2170 | 0.94 | 0.967 | 0.92 | 0.968 | 0.936 | 0.661 | 0.715 | 0.621 | 0.617 | 0.707 | 0.849 | 0.787 | 0.817 | 0.892 | 1.03 | 0.985 | 1.02 | 0.988 | 0.952 | 0.931 |
| NCI-H2228 | 0.202 | 0.652 | 0.533 | 0.651 | 0.565 | 0.698 | 0.893 | 0.847 | 0.99 | 1.19 | 0.884 | 0.699 | 0.798 | 0.677 | 0.964 | 1.04 | 0.867 | 0.758 | 0.793 | 0.711 |
| NCI-H2347 | 0.254 | 0.312 | 0.232 | 0.307 | 0.302 | 0.793 | 0.857 | 0.902 | 0.818 | 0.934 | 1.12 | 1.17 | 1.05 | 1.01 | 1.01 | 0.684 | – | 1.05 | 0.804 | 0.689 |
| NCI-H2405 | 0.6 | 0.732 | 0.621 | 0.7 | 0.722 | 0.913 | 0.933 | 0.881 | 0.857 | 1.11 | 0.854 | 0.847 | 0.854 | 0.877 | 0.849 | 1.01 | 0.974 | 0.907 | 0.784 | 0.884 |
| NCI-H3122 | 0.25 | 0.248 | 0.214 | 0.252 | 0.244 | 0.992 | 0.956 | 1.05 | 1.02 | 1.04 | 0.753 | 0.719 | 0.843 | 0.711 | 0.792 | 0.932 | 0.927 | 0.854 | 0.891 | – |
| PC-3 [JPC-3] | 0.664 | 0.775 | 0.725 | 0.632 | 0.636 | 0.827 | – | 0.787 | 0.82 | 0.928 | 1.09 | – | 1 | 1.04 | 1.12 | 1.05 | 0.991 | 0.927 | 0.931 | 0.833 |
| PC-14 | 0.857 | 0.783 | 0.947 | 0.879 | 0.892 | 1.09 | 1.01 | 1.05 | 0.967 | 1.05 | 1.02 | 0.931 | 0.94 | 0.893 | 1.05 | 1.09 | 0.998 | 1.03 | 0.94 | 0.791 |
| RERF-LC-KJ | 0.953 | 0.968 | 0.863 | 0.818 | 0.96 | 1 | 0.942 | 0.973 | 1.02 | 1.28 | 0.87 | 0.767 | 0.842 | 0.77 | 0.876 | 0.886 | 0.829 | 0.792 | 0.786 | 0.813 |
| SK-LU-1 | 0.463 | 0.514 | 0.493 | 0.547 | 0.531 | 0.955 | 1.2 | 0.932 | 0.812 | 1.13 | 1.11 | 1.32 | 1.05 | 1.06 | 1.63 | 0.884 | 0.95 | 0.84 | 0.858 | – |
| SK-MES-1 | 0.625 | 0.587 | 0.561 | 0.587 | 0.61 | 1.32 | 1.2 | 1.32 | 1.25 | 1.51 | 0.981 | 0.974 | 1.04 | 0.943 | 1.12 | 0.763 | 0.817 | 0.857 | 0.604 | 0.588 |
| SW 1573 | 0.521 | 0.488 | 0.658 | 0.572 | 0.654 | 0.914 | 1.03 | 1.05 | 0.852 | 0.904 | 0.766 | 0.954 | 0.783 | 0.774 | 0.738 | 1.01 | 0.891 | 0.835 | 0.709 | 0.753 |
| UMC-11 | 0.558 | 0.876 | 0.712 | 0.779 | 0.744 | 0.322 | 0.305 | 0.282 | 0.347 | 0.294 | 1.08 | 0.871 | 0.959 | 1.03 | 1.16 | 0.965 | 1.13 | 1.19 | 1.43 | 1.04 |

— the supplement of paper PMC10307832
